Experimental data from ChEMBL document CHEMBL1201861, “Genomics of Drug Sensitity in Cancer screening data, Wellcome Trust Sanger Institute”.
pIC50: −log10 of the molar value. Blank lines part the entries; values can stand above or below the molecule they belong to.

Columns and labels:
Type in all cases: functional, cell-based
IGR-1 = assay: cells; settings: Homo sapiens;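 also: growth inhibition of human IGR-1 cells, read out with a cell viability assay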
Description: SANGER: Inhibition of human IGR-1 cell growth in a cell viability assay.

NCI-H810 = assay: cells; settings: Homo sapiens;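 also: IC50 reflects inhibition of cancer cell line growth, read out with a cell viability assay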
Description: SANGER: Inhibition of human NCI-H810 cell growth in a cell viability assay.

786-0 = assay: cells; settings: Homo sapiens
Description: SANGER: Inhibition of human 786-0 cell growth in a cell viability assay.

D-392MG = assay: cells; settings: Homo sapiens
D-566MG = assay: cells; settings: Homo sapiens
DMS-114 = assay: cells; settings: Homo sapiens
EM-2 = assay: cells; settings: Homo sapiens;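 also: growth inhibition of EM-2 cells, read out with a cell viability assay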
Description: SANGER: Inhibition of human EM-2 cell growth in a cell viability assay.

ES7 = assay: cells; settings: Homo sapiens;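 also: growth inhibition of cultured human ES7 cells, read out as cell viability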
Description: SANGER: Inhibition of human ES7 cell growth in a cell viability assay.

K5 = assay: cells; settings: Homo sapiens
Description: SANGER: Inhibition of human K5 cell growth in a cell viability assay.

L-363 = assay: cells; settings: Homo sapiens
Description: SANGER: Inhibition of human L-363 cell growth in a cell viability assay.

LB1047-RCC = assay: cells; settings: Homo sapiens
Description: SANGER: Inhibition of human LB1047-RCC cell growth in a cell viability assay.

MEG-01 = assay: cells; settings: Homo sapiens;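 also: growth inhibition of MEG-01 cells, read out by a cell viability assay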
Description: SANGER: Inhibition of human MEG-01 cell growth in a cell viability assay.

MHH-NB-11 = assay: cells; settings: Homo sapiens;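 also: growth inhibition of human MHH-NB-11 cells, read out by a cell viability assay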
Description: SANGER: Inhibition of human MHH-NB-11 cell growth in a cell viability assay.

NCI-H1581 = assay: cells; settings: Homo sapiens;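 also: cell growth inhibition read out by a viability assay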
Description: SANGER: Inhibition of human NCI-H1581 cell growth in a cell viability assay.

NCI-H446 = assay: cells; settings: Homo sapiens;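 also: growth inhibition of NCI-H446 cells determined by a cell viability assay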
Description: SANGER: Inhibition of human NCI-H446 cell growth in a cell viability assay.

A2780 = assay: cells; settings: Homo sapiens;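 also: growth inhibition of A2780 cells, read out with a cell viability assay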
Description: SANGER: Inhibition of human A2780 cell growth in a cell viability assay.

A-427 = assay: cells; settings: Homo sapiens;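 also: growth inhibition of human A-427 cells, read out by a cell viability assay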
Description: SANGER: Inhibition of human A427 cell growth in a cell viability assay.

AGS = assay: cells; settings: Homo sapiens;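 also: growth inhibition of AGS cells, determined with a cell viability assay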
Description: SANGER: Inhibition of human AGS cell growth in a cell viability assay.

CHP-212 = assay: cells; settings: Homo sapiens
Description: SANGER: Inhibition of human CHP-212 cell growth in a cell viability assay.

KU812 cell line = assay: cells; settings: Homo sapiens;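 also: growth inhibition of KU812 cells, read out with a cell viability assay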
Description: SANGER: Inhibition of human KU812 cell growth in a cell viability assay.

LXF-289 cell line = assay: cells; settings: Homo sapiens
Description: SANGER: Inhibition of human LXF-289 cell growth in a cell viability assay.

A253 cell line = assay: cells; settings: Homo sapiens;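 also: growth inhibition of A253 cells, read out with a cell viability assay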
Description: SANGER: Inhibition of human A253 cell growth in a cell viability assay.

BC1 cell line = assay: SANGER: Inhibition of human BC-1 cell growth in a cell viability assay.
COLO-824 = assay: cells; settings: Homo sapiens
Description: SANGER: Inhibition of human COLO-824 cell growth in a cell viability assay.

COR-L88 = assay: cells; settings: Homo sapiens;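 also: growth inhibition of COR-L88 cells, read out with a cell viability assay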
Description: SANGER: Inhibition of human COR-L88 cell growth in a cell viability assay.

CaR-1 = assay: cells; settings: Homo sapiens;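 also: growth inhibition of human CaR-1 cancer cells, read out with a cell viability assay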
Description: SANGER: Inhibition of human CaR-1 cell growth in a cell viability assay.

DMS-273 = assay: cells; settings: Homo sapiens
Description: SANGER: Inhibition of human DMS-273 cell growth in a cell viability assay.

DSH1 = assay: cells; settings: Homo sapiens;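 also: growth inhibition of human DSH1 cells, measured with a cell viability readout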
Description: SANGER: Inhibition of human DSH1 cell growth in a cell viability assay.

EW-18 = assay: cells; settings: Homo sapiens;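 also: growth inhibition of EW-18 cells, read out by a cell viability assay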
Description: SANGER: Inhibition of human EW-18 cell growth in a cell viability assay.

GCT = assay: cells; settings: Homo sapiens;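 also: GCT cell line proliferation inhibition, read out with a cell viability assay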
Description: SANGER: Inhibition of human GCT cell growth in a cell viability assay.

GI-1 = assay: cells; settings: Homo sapiens;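 also: growth inhibition of human GI-1 cells, measured with a cell viability readout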
Description: SANGER: Inhibition of human GI-1 cell growth in a cell viability assay.

H-EMC-SS = assay: cells; settings: Homo sapiens
Description: SANGER: Inhibition of human H-EMC-SS cell growth in a cell viability assay.

HCC1569 = assay: cells; settings: Homo sapiens;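 also: growth inhibition of human HCC1569 cells, read out with a cell viability assay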
Description: SANGER: Inhibition of human HCC1569 cell growth in a cell viability assay.

HEL = assay: cells; settings: Homo sapiens;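 also: growth inhibition of HEL cells, read out with a cell viability assay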
Description: SANGER: Inhibition of human HEL cell growth in a cell viability assay.

HN = assay: cells; settings: Homo sapiens
Description: SANGER: Inhibition of human HN cell growth in a cell viability assay.

HSC-2 = assay: cells; settings: Homo sapiens;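 also: growth inhibition of human HSC-2 cells, read out by a cell viability assay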
Description: SANGER: Inhibition of human HSC-2 cell growth in a cell viability assay.

HT55 = assay: cells; settings: Homo sapiens;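 also: cell viability readout measuring growth inhibition of human HT55 cells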
Description: SANGER: Inhibition of human HT55 cell growth in a cell viability assay.

HTC-C3 = assay: cells; settings: Homo sapiens;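 also: inhibition of cell growth, read out with a cell viability assay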
Description: SANGER: Inhibition of human HTC-C3 cell growth in a cell viability assay.

Huh-7 = assay: cells; settings: Homo sapiens;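 also: HuH-7 cell growth inhibition, read out with a cell viability assay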
Description: SANGER: Inhibition of human HuH-7 cell growth in a cell viability assay.

IA-LM = assay: cells; settings: Homo sapiens;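 also: cell viability assay measuring growth inhibition of human IA-LM cells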
Description: SANGER: Inhibition of human IA-LM cell growth in a cell viability assay.

IST-SL1 = assay: cells; settings: Homo sapiens;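 also: growth inhibition of human IST-SL1 cells, read out with a cell viability assay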
Description: SANGER: Inhibition of human IST-SL1 cell growth in a cell viability assay.

JAR = assay: cells; settings: Homo sapiens;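 also: growth inhibition of human JAR cells determined with a cell viability assay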
Description: SANGER: Inhibition of human JAR cell growth in a cell viability assay.

JVM-3 = assay: cells; settings: Homo sapiens;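 also: growth inhibition of human JVM-3 cells, read out with a cell viability assay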
Description: SANGER: Inhibition of human JVM-3 cell growth in a cell viability assay.

KARPAS-45 = assay: cells; settings: Homo sapiens;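 also: inhibition of cell line growth, read out through a viability assay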
Description: SANGER: Inhibition of human KARPAS-45 cell growth in a cell viability assay.

LCLC-103H cell line = assay: cells; settings: Homo sapiens
Description: SANGER: Inhibition of human LCLC-103H cell growth in a cell viability assay.

LCLC-97TM1 = assay: cells; settings: Homo sapiens;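 also: cell viability assay measuring growth inhibition of human LCLC-97TM1 cells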
Description: SANGER: Inhibition of human LCLC-97TM1 cell growth in a cell viability assay.

LU-139 = assay: cells; settings: Homo sapiens
Description: SANGER: Inhibition of human LU-139 cell growth in a cell viability assay.

MDA-MB-453 = assay: cells; settings: Homo sapiens
Description: SANGER: Inhibition of human MDA-MB-453 cell growth in a cell viability assay.

MN-60 = assay: cells; settings: Homo sapiens;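 also: growth inhibition of the MN-60 cell line, determined with a cell viability assay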
Description: SANGER: Inhibition of human MN-60 cell growth in a cell viability assay.

MOLT-13 = assay: cells; settings: Homo sapiens;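 also: IC50 for suppression of MOLT-13 cell growth, read out with a cell viability assay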
Description: SANGER: Inhibition of human MOLT-13 cell growth in a cell viability assay.

MPP-89 = assay: cells; settings: Homo sapiens;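 also: growth inhibition of human MPP-89 cells, read out with a cell viability assay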
Description: SANGER: Inhibition of human MPP-89 cell growth in a cell viability assay.

NCI-H1666 = assay: cells; settings: Homo sapiens;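 also: growth inhibition of the cell line, read out with a cell viability assay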
Description: SANGER: Inhibition of human NCI-H1666 cell growth in a cell viability assay.

NCI-H1693 = assay: cells; settings: Homo sapiens;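 also: growth inhibition of the human cell line, read out with a cell viability assay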
Description: SANGER: Inhibition of human NCI-H1693 cell growth in a cell viability assay.

NCI-H23 = assay: cells; settings: Homo sapiens;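 also: cell viability assay measuring growth inhibition of NCI-H23 cells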
Description: SANGER: Inhibition of human NCI-H23 cell growth in a cell viability assay.

NCI-H292 = assay: cells; settings: Homo sapiens;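 also: growth inhibition of NCI-H292 cells, read out with a cell viability assay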
Description: SANGER: Inhibition of human NCI-H292 cell growth in a cell viability assay.

NCI-H520 = assay: cells; settings: Homo sapiens;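 also: growth inhibition of NCI-H520 cells, measured by a cell viability assay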
Description: SANGER: Inhibition of human NCI-H520 cell growth in a cell viability assay.

SNU1 = assay: cells; settings: Homo sapiens;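 also: growth inhibition of human NCI-SNU-1 cells, measured with a cell viability assay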
Description: SANGER: Inhibition of human NCI-SNU-1 cell growth in a cell viability assay.

NOMO-1 = assay: cells; settings: Homo sapiens;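 also: growth inhibition of human NOMO-1 cells measured by a cell viability assay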
Description: SANGER: Inhibition of human NOMO-1 cell growth in a cell viability assay.

NY = assay: cells; settings: Homo sapiens
Description: SANGER: Inhibition of human NY cell growth in a cell viability assay.

OC-314 = assay: cells; settings: Homo sapiens
Description: SANGER: Inhibition of human OC-314 cell growth in a cell viability assay.

OCUB-M = assay: cells; settings: Homo sapiens;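 also: growth inhibition of the cancer cell line, read out through a cell viability assay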
Description: SANGER: Inhibition of human OCUB-M cell growth in a cell viability assay.

OE33 = assay: cells; settings: Homo sapiens;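 also: growth inhibition of human OE33 cells, measured by a cell viability assay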
Description: SANGER: Inhibition of human OE33 cell growth in a cell viability assay.

OS-RC-2 = assay: cells; settings: Homo sapiens;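 also: growth inhibition of human OS-RC-2 cells, measured by a cell viability assay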
Description: SANGER: Inhibition of human OS-RC-2 cell growth in a cell viability assay.

OVCAR-8 = assay: cells; settings: Homo sapiens;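 also: growth inhibition of human OVCAR-8 cells, read out by a cell viability assay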
Description: SANGER: Inhibition of human OVCAR-8 cell growth in a cell viability assay.

P30-OHK = assay: cells; settings: Homo sapiens;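 also: growth inhibition of the P30-OHK cell line, read out with a cell viability assay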
Description: SANGER: Inhibition of human P30-OHK cell growth in a cell viability assay.

PSN1 = assay: cells; settings: Homo sapiens;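 also: suppression of growth of human PSN1 cells, read out by a cell viability assay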
Description: SANGER: Inhibition of human PSN1 cell growth in a cell viability assay.

RS4-11 = assay: cells; settings: Homo sapiens;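 also: growth inhibition of RS4-11 cells, read out by a cell viability assay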
Description: SANGER: Inhibition of human RS4-11 cell growth in a cell viability assay.

SBC-1 = assay: cells; settings: Homo sapiens;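 also: cell viability assay measuring growth inhibition of the SBC-1 cell line, IC50 being the concentration that halves growth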
Description: SANGER: Inhibition of human SBC-1 cell growth in a cell viability assay.

SK-LU-1 = assay: cells; settings: Homo sapiens
Description: SANGER: Inhibition of human SK-LU-1 cell growth in a cell viability assay.

SK-MEL-2 = assay: cells; settings: Homo sapiens
Description: SANGER: Inhibition of human SK-MEL-2 cell growth in a cell viability assay.

SK-N-AS = assay: cells; settings: Homo sapiens
Description: SANGER: Inhibition of human SK-N-AS cell growth in a cell viability assay.

SK-N-FI = assay: cells; settings: Homo sapiens
Description: SANGER: Inhibition of human SK-N-FI cell growth in a cell viability assay.

SNU-449 = assay: cells; settings: Homo sapiens
Description: SANGER: Inhibition of human SNU-449 cell growth in a cell viability assay.

SW780 = assay: cells; settings: Homo sapiens
Description: SANGER: Inhibition of human SW780 cell growth in a cell viability assay.

SW948 = assay: cells; settings: Homo sapiens
Description: SANGER: Inhibition of human SW948 cell growth in a cell viability assay.

TE-1 = assay: cells; settings: Homo sapiens
Description: SANGER: Inhibition of human TE-1 cell growth in a cell viability assay.

5637 = assay: cells; settings: Homo sapiens
Description: SANGER: Inhibition of human 5637 cell growth in a cell viability assay.

8305C = assay: cells; settings: Homo sapiens
Description: SANGER: Inhibition of human 8305C cell growth in a cell viability assay.

8505C = assay: cells; settings: Homo sapiens
Description: SANGER: Inhibition of human 8505C cell growth in a cell viability assay.

A3-KAW = assay: cells; settings: Homo sapiens
Description: SANGER: Inhibition of human A3-KAW cell growth in a cell viability assay.

A673 = assay: cells; settings: Homo sapiens
Description: SANGER: Inhibition of human A673 cell growth in a cell viability assay.

ATN-1 = assay: cells; settings: Homo sapiens
Description: SANGER: Inhibition of human ATN-1 cell growth in a cell viability assay.

BB49-HNC = assay: cells; settings: Homo sapiens
Description: SANGER: Inhibition of human BB49-HNC cell growth in a cell viability assay.

C8166 = assay: cells; settings: Homo sapiens
Description: SANGER: Inhibition of human C8166 cell growth in a cell viability assay.

CAL-39 = assay: cells; settings: Homo sapiens
Description: SANGER: Inhibition of human CAL-39 cell growth in a cell viability assay.

CAL-51 = assay: cells; settings: Homo sapiens
Description: SANGER: Inhibition of human CAL-51 cell growth in a cell viability assay.

CAL-62 = assay: cells; settings: Homo sapiens
Description: SANGER: Inhibition of human CAL-62 cell growth in a cell viability assay.

TE-6 = assay: cells; settings: Homo sapiens
Description: SANGER: Inhibition of human TE-6 cell growth in a cell viability assay.

TE-8 = assay: cells; settings: Homo sapiens
Description: SANGER: Inhibition of human TE-8 cell growth in a cell viability assay.

UACC-893 = assay: cells; settings: Homo sapiens
Description: SANGER: Inhibition of human UACC-893 cell growth in a cell viability assay.

VMRC-RCZ = assay: cells; settings: Homo sapiens
Description: SANGER: Inhibition of human VMRC-RCZ cell growth in a cell viability assay.

YAPC = assay: cells; settings: Homo sapiens
Description: SANGER: Inhibition of human YAPC cell growth in a cell viability assay.

COLO-320-HSR = assay: cells; settings: Homo sapiens
Description: SANGER: Inhibition of human COLO-320-HSR cell growth in a cell viability assay.

pIC50 (IGR-1): 5.98
pIC50 (NCI-H810): 6.37
pIC50 (786-0): 6.49
Structure (SMILES): NC(=O)[C@@H](CCC(F)(F)F)N(Cc1ccc(-c2ncon2)cc1F)S(=O)(=O)c1ccc(Cl)cc1

pIC50 (D-392MG): < 5.70
pIC50 (D-566MG): 5.85
pIC50 (DMS-114): < 5.70
pIC50 (EM-2): 6.77
pIC50 (ES7): 5.95
pIC50 (K5): 6.38
pIC50 (L-363): < 5.70
pIC50 (LB1047-RCC): < 5.70
pIC50 (MEG-01): 6.37
pIC50 (MHH-NB-11): < 5.70
pIC50 (NCI-H1581): 5.86
pIC50 (NCI-H446): < 5.70
pIC50 (A2780): 6.00
pIC50 (A-427): 5.96
pIC50 (AGS): 5.95
pIC50 (CHP-212): < 5.70
Structure (SMILES): CNC(=O)c1ccccc1Sc1ccc2c(/C=C/c3ccccn3)n[nH]c2c1 [AXITINIB]

pIC50 (KU812 cell line): 6.92
pIC50 (LXF-289 cell line): 7.75
pIC50 (A253 cell line): 7.05
Structure (SMILES): CC[C@@H]1C(=O)N(C)c2cnc(Nc3ccc(C(=O)NC4CCN(C)CC4)cc3OC)nc2N1C1CCCC1 [BI-2536]
pIC50 (BC1 cell line): 6.65

pIC50 (COLO-824): 5.11
pIC50 (COR-L88): 5.81
pIC50 (CaR-1): 5.54
pIC50 (D-566MG): 6.08
pIC50 (DMS-273): 5.67
pIC50 (DSH1): 5.66
pIC50 (ES7): 5.81
pIC50 (EW-18): 6.08
pIC50 (GCT): 5.66
pIC50 (GI-1): 5.64
pIC50 (H-EMC-SS): < 5.00
pIC50 (HCC1569): 5.31
pIC50 (HEL): 6.09
pIC50 (HN): 5.72
pIC50 (HSC-2): 5.67
pIC50 (HT55): 5.78
pIC50 (HTC-C3): 5.64
pIC50 (Huh-7): 5.64
pIC50 (IA-LM): 5.77
pIC50 (IST-SL1): 5.66
pIC50 (JAR): 5.63
pIC50 (JVM-3): 5.73
pIC50 (KARPAS-45): 6.76
pIC50 (LCLC-103H cell line): 5.54
pIC50 (LCLC-97TM1): 5.67
pIC50 (LU-139): 6.08
pIC50 (MDA-MB-453): 5.65
pIC50 (MN-60): 5.99
pIC50 (MOLT-13): 6.13
pIC50 (MPP-89): 5.12
pIC50 (NCI-H1666): 5.64
pIC50 (NCI-H1693): < 5.00
pIC50 (NCI-H23): 5.81
pIC50 (NCI-H292): 5.54
pIC50 (NCI-H520): < 5.00
pIC50 (SNU1): 5.99
pIC50 (NOMO-1): 5.66
pIC50 (NY): < 5.00
pIC50 (OC-314): 5.65
pIC50 (OCUB-M): 5.45
pIC50 (OE33): 5.31
pIC50 (OS-RC-2): 5.73
pIC50 (OVCAR-8): 5.81
pIC50 (P30-OHK): 6.08
pIC50 (PSN1): 5.64
pIC50 (RS4-11): 6.08
pIC50 (SBC-1): 6.10
pIC50 (SK-LU-1): < 5.00
pIC50 (SK-MEL-2): 6.09
pIC50 (SK-N-AS): 6.01
pIC50 (SK-N-FI): 5.31
pIC50 (SNU-449): 5.54
pIC50 (SW780): 5.31
pIC50 (SW948): 5.66
pIC50 (TE-1): 6.10
pIC50 5637: 5.63
pIC50 (8305C): 5.54
pIC50 (8505C): 5.99
pIC50 (A3-KAW): 6.40
pIC50 (A673): 5.65
pIC50 (ATN-1): 6.13
pIC50 (BB49-HNC): < 5.00
pIC50 (C8166): 5.65
pIC50 (CAL-39): 5.65
pIC50 (CAL-51): 5.66
pIC50 (CAL-62): 5.45
pIC50 (TE-6): 5.31
pIC50 (TE-8): 5.67
pIC50 (UACC-893): < 5.00
pIC50 (VMRC-RCZ): < 5.00
pIC50 (YAPC): < 5.00
pIC50 (COLO-320-HSR): 5.73
Structure (SMILES): O=C(CCCCCCC(=O)Nc1ccccc1)NO [VORINOSTAT]
